Experimental data published in ChEMBL document CHEMBL1137771, “Non-nucleoside inhibitors of HCV polymerase NS5B. Part 2: Synthesis and structure-activity relationships of benzothiazine-substituted quinolinediones” (Bioorg Med Chem Lett, 2009).
In brackets after ≈: the same amount, converted by molar mass.

Columns and labels:
[1] = Solubility of the compound; assay type: physicochemical
Hepatitis C virus [2] = experiment: Inhibition of HCV 1b isolate BK NS5B Cdelta21 polymerase expressed in Escherichia coli; parameters: species or system Hepatitis C virus subtype 1b
[3] = Oral bioavailability in rat; assay type: ADME, organism-based; conditions: in vivo
Hepatitis C virus [4] = experiment: Inhibition of HCV genotype 1b isolate con1 NS5B polymerase assessed as incorporation of radiolabeled nucleotide into RNA product; parameters: species or system Hepacivirus hominis
[5] = Cytotoxicity against human 2209-23 cells by WST1 assay; assay type: cell-based
Hepatitis C virus [6] = experiment: Antiviral activity against HCV genotype 1b isolate con1 infected in human 2209-23 cells assessed as inhibition of [3H]thymidine incorporation into DNA by scintillation proximity assay in presence of 5% fetal bovine serum; assay type: functional, organism-based, Hepacivirus hominis; conditions: isolate Con1, 2209-23
Hepatitis C virus [7] = experiment: Antiviral activity against HCV genotype 1b isolate con1 infected in human 2209-23 cells assessed as inhibition of [3H]thymidine incorporation into DNA by scintillation proximity assay in presence of 40% human serum albumin; assay type: functional, organism-based, Hepacivirus hominis; conditions: isolate Con1, 2209-23
Hepatitis C virus [8] = experiment: Ratio of EC50 for HCV genotype 1b isolate con1 in presence of human serum albumin to EC50 for HCV genotype 1b isolate con1 in presence of fetal bovine serum; assay type: functional, Hepacivirus hominis
[9] = Dissociation constant, pKa of the compound; assay type: physicochemical
Hepatitis C virus [10] = experiment: Antiviral activity against HCV genotype 1b infected in human HuH7 cells by replicon assay; assay type: functional, organism-based, Hepacivirus hominis; conditions: Huh-7

| Compound | IC50 (Hepatitis C virus [4]) | CC50 [5] | EC50 (Hepatitis C virus [6]) | also measured |
| --- | --- | --- | --- | --- |
| O=c1c(C2=Nc3ccccc3S(=O)(=O)N2)c(O)c2cc(F)ccc2n1CCC1CC1 | – | – | – | solubility [1]: < 1 µg/mL; IC50 (Hepatitis C virus [2]): 30 nM; bioavailability [3]: 10% |
| CS(=O)(=O)Nc1ccc2c(c1)S(=O)(=O)C=C(c1c(O)c3cc(F)ccc3n(Cc3cccnc3)c1=O)N2 | 22 nM | > 50000 nM | 589 nM | – |
| CCCC(C)n1c(=O)c(C2=CS(=O)(=O)c3cc(NS(C)(=O)=O)ccc3N2)c(O)c2cc(F)ccc21 (stereo not given) | 41 nM | > 50000 nM | 9 nM | – |
| CC(C)(C)CCn1c(=O)c(C2=CS(=O)(=O)c3cc(NS(C)(=O)=O)ccc3N2)c(O)c2cc(F)ccc21 | 12 nM | > 50000 nM | – | EC50 (Hepatitis C virus [7]): 241 nM |
| COC(C)(C)CCn1c(=O)c(C2=CS(=O)(=O)c3cc(NS(C)(=O)=O)ccc3N2)c(O)c2cc(F)ccc21 | 10 nM | > 50000 nM | 47 nM | EC50 (Hepatitis C virus [7]): 1200 nM; fold change (FC) (Hepatitis C virus [8]): 9.2 |
| CC(=O)Nc1ccc2c(c1)S(=O)(=O)C=C(c1c(O)c3cc(F)ccc3n(Cc3ccc(F)cc3)c1=O)N2 | 869 nM | > 50000 nM | 10900 nM | – |
| CS(=O)(=O)Nc1ccc2c(c1)S(=O)(=O)C=C(c1c(O)c3cc(F)ccc3n(Cc3ccc(F)cc3)c1=O)N2 | – | > 50000 nM | 14 nM | fold change (FC) (Hepatitis C virus [8]): 13; pKa [9]: 3.8 |
| O=c1c(C2=CS(=O)(=O)c3ccccc3N2)c(O)c2cc(F)ccc2n1Cc1ccc(F)cc1 | – | > 50000 nM | 726 nM | – |
| O=c1c(C2=CS(=O)(=O)c3ccccc3N2)c(O)c2cc(F)ccc2n1CCC1CC1 | – | – | – | solubility [1]: 8 µg/mL (≈ 18.8 µM); EC50 (Hepatitis C virus [10]): 1200 nM; bioavailability [3]: 79% |
| O=c1c(C2=CS(=O)(=O)c3cc(F)ccc3N2)c(O)c2cc(F)ccc2n1Cc1ccc(F)cc1 | 148 nM | > 50000 nM | 1280 nM | – |
| N#Cc1ccc2c(c1)S(=O)(=O)C=C(c1c(O)c3cc(F)ccc3n(Cc3ccc(F)cc3)c1=O)N2 | 694 nM | > 50000 nM | 4640 nM | – |
| CS(=O)(=O)Nc1ccc2c(c1)S(=O)(=O)C=C(c1c(O)c3cc(Cl)ccc3n(Cc3ccc(F)cc3)c1=O)N2 | 10 nM | > 50000 nM | 166 nM | – |
| CS(=O)(=O)Nc1ccc2c(c1)S(=O)(=O)C=C(c1c(O)c3cc(F)ccc3n(Cc3ccncc3)c1=O)N2 | 11 nM | > 50000 nM | 64 nM | EC50 (Hepatitis C virus [7]): 688 nM; fold change (FC) (Hepatitis C virus [8]): 9.2 |
| Nc1ccc2c(c1)S(=O)(=O)C=C(c1c(O)c3cc(F)ccc3n(Cc3ccc(F)cc3)c1=O)N2 | 734 nM | > 50000 nM | 827 nM | – |
| NC(=O)COc1ccc2c(c1)S(=O)(=O)C=C(c1c(O)c3cc(F)ccc3n(Cc3ccc(F)cc3)c1=O)N2 | 10 nM | > 50000 nM | 1190 nM | – |
| NS(=O)(=O)Nc1ccc2c(c1)S(=O)(=O)C=C(c1c(O)c3cc(F)ccc3n(Cc3ccc(F)cc3)c1=O)N2 | 7 nM | > 50000 nM | 15 nM | – |
| CN(c1ccc2c(c1)S(=O)(=O)C=C(c1c(O)c3cc(F)ccc3n(Cc3ccc(F)cc3)c1=O)N2)S(C)(=O)=O | 106 nM | > 50000 nM | 1470 nM | – |
